Experimental data: article PMC8305652, “Copper(II) Complexes Containing Natural Flavonoid Pomiferin Show Considerable In Vitro Cytotoxicity and Anti-inflammatory Effects” (International Journal of Molecular Sciences, 2021)

Legend:
[1] = test system: HuCCA-1, KB, HeLa and T47D cell lines; set-up: method as in PMID 21922909; details: 48 h incubation, range over cell lines; cited from earlier work
[2] = test system: ACHN, NCI-H23, PC-3, MDA-MB-231, LOX-IMVI, colon carcinoma cell lines; set-up: method as in PMID 17662606; details: 24 h of incubation, range over cell lines; cited from earlier work
[3] = test system: NF-κB; set-up: method as in PMID 23947936; details: 1.25 µM; cited from earlier work
[4] = test system: caspases 3/7 in A2780 cells; test: activation of caspases 3/7, flow cytometry; format: cell-based, human; details: A2780, 15 µM, 24 h
Experimental: Both methods were performed according to the manufacturers’ protocols with 1 modification in the caspase induction assay, which was the use of the CellEvent^TM Caspase-3/7 Green Detection Reagent only for detection of Caspase-3/7 activation. […] After 24 h, the cells were washed once with PBS (0.1 M, pH 7.4), detached with trypsin (0.25% in ethylenediaminetetraacetic acid (EDTA), Sigma-Aldrich), resuspended in 500 µL of the culture medium and divided into 2 separate tubes, the first for apoptosis assay and the second one for caspase activation analysis. After staining with appropriate dyes, samples were analyzed on a BD FACSVerse flow cytometer (Becton Dickinson, Franklin Lakes, NJ, USA) in 3 separate experiments, while at least 10^4 events were recorded for each sample prepared in duplicate.

[5] = test system: caspase 3 (Casp-3) in THP-1 cells; test: Western blotting of apoptosis-related proteins; format: cell-based, human; details: THP-1, complexes 4 µM, 24 h, Western blot
Experimental: In addition to the above-mentioned methods, the Western blotting method was used to shed light on the mechanisms associated with caspase 3 activation in the THP-1 cells. Two and a half milliliters of floating THP-1 monocytes resuspended in a serum-free RPMI 1640 medium were seeded into 6-well plates at the concentration of 10^6 cells/mL. Two hours later, complexes 3 and 5 were added at the concentration level of 4 µM. After 24 h incubation, the cells were collected by centrifugation (3000 g/5 min/4 °C), washed by cold PBS and resuspended in an ice-cold lysis buffer (50 mM Tris-HCl pH 7.5, 1 mM EGTA, 1 mM EDTA, 1 mM sodium orthovanadate, 50 mM sodium fluoride, 5 mM sodium pyrophosphate, 270 mM sucrose) with Roche cOmplete protease inhibitors (Roche Diagnostics, Basel, Switzerland). The cell lysates were centrifuged at 3000 g/5 min/4 °C and supernatants were mixed with a 5x Laemmli buffer [containing 250 mM Tris-HCl pH 6.8, 10% (w/v) SDS, 30% (v/v) glycerol, 5% (v/v) β-mercaptoethanol, 0.04% (w/v) bromphenol blue] and incubated at 70 °C for 5 min. […] The membranes were incubated at 4 °C for 16 h with a primary anti-cleaved caspase 3 (p17) antibody at the dilution 1:1000 (Cell Signaling, Danvers, MA, USA; products No. 9664), and an Apoptosis WB Cocktail (Abcam, Cambridge, UK; product No. ab136812) at the dilution recommended by the provider to detect β-actin, cleaved poly-(ADP-ribose) polymerase (PARP) and pro-caspase 3. After washing in a TBST buffer, the secondary anti-rabbit IgG antibody (Sigma-Aldrich, product No. A0545) was diluted 1:2500 and applied to the membranes, which were then incubated for 1 h at the laboratory temperature (~22 °C). The amount of bound secondary antibody was determined using an ECL reagent (Bio-Rad, Hercules, CA, USA). Chemiluminescence was detected using a Syngene PXi4 chemiluminescence imaging system (Cambridge, UK).

Compound: CC(C)=CCc1c2c(c3occ(-c4ccc(O)c(O)c4)c(=O)c3c1O)C=CC(C)(C)O2 [pomiferin, 3-(3,4-dihydroxyphenyl)-5-hydroxy-8,8-dimethyl-6-(3-methylbut-2-ene-1-yl)-4H,8H-benzo[1,2-b:3,4-b′]dipyran-4-one]
- ED50 [1]: 0.6 to 24 µM
- GI50 [2]: 1.32 to 13.3 µM
- NF-κB activation by inhibition of IκB degradation [3]: inhibited NF-κB activation

Compound: CC(C)=CCc1c2c(c3occ(-c4ccc(O)c(O)c4)c(=O)c3c1[O-])C=CC(C)(C)O2.CO.O=[N+]([O-])[O-].[Cu+2].c1ccc(-c2ccnc3c2ccc2c(-c4ccccc4)ccnc23)cc1 [Complex 4, (3-(3,4-dihydroxyphenyl)-8,8-dimethyl-6-(3-methylbut-2-en-1-yl)-4H,8H-benzo[1,2-b:3,4-b′]dipyran-4-one-5-olato-κ^2O4:O5)(4,7-diphenyl-1,10-phenanthroline–κ^2N:N)copper(II) nitrate methanol solvate]
- activation of executioner caspases 3/7 [4]: significantly increase the antiproliferative effects over the free pomiferin and reference drug cisplatin

Compound: (3-(3,4-dihydroxyphenyl)-8,8-dimethyl-6-(3-methylbut-2-en-1-yl)-4H,8H-benzo[1,2-b:3,4-b′]dipyran-4-one-5-olato-κ^2O4:O5)(dipyrido[3,2-a:2′,3′-c]phenazine–κ^2N4:N5)copper(II) nitrate methanol solvate [Complex 5]
- levels of pro-caspase 3 (pro-Casp-3) [5]: dramatically decreased
- proteolytically activated Casp-3 (verified by cleaved PARP-1) ([5]; cisplatin 10 µM): only minor activity of Casp-3
